In one assay the target is HLA-DR DRB3*01:01 (Homo sapiens, UniProt P01903+P79483). Nature of the assay: biochemical. In kind it is binding.
For another assay, the target named is HLA-DR DRB5*01:01 (Homo sapiens, UniProt P01903+Q30154). Nature of the assay: biochemical. In kind it is binding.
Assay [1] concerns the target T1, HLA-DP DPA1*01:03/DPB1*02:01 (Homo sapiens, UniProt P04440+P20036, A65V/A84D/A85E/K98E).
T1 sequence (P20036 29-260): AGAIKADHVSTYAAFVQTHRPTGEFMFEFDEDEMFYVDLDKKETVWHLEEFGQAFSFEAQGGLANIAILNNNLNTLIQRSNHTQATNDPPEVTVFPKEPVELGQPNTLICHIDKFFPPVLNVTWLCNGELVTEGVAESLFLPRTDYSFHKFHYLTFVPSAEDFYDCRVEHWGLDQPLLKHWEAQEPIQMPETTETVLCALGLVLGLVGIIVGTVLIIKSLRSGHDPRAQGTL
T1 sequence (P04440 30-258 A65V/A84D/A85E/K98E): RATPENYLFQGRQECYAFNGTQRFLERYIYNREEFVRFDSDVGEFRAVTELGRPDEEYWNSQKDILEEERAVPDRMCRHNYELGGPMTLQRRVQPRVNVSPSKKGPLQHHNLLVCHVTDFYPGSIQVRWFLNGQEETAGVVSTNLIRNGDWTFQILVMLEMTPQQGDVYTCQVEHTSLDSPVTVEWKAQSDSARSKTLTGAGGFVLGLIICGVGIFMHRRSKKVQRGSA
Briefly: biochemical. In kind it is binding.

Assay [2] has as its target T2, HLA-DP DPA1*01:03/DPB1*03:01 (Homo sapiens, UniProt P04440+P20036, A65V/A84D/A85E/E86D/F38Y/G113D/G114E/G40L/I94L/L37V/M105V/M116V/P115A/R125K/T199I).
T2 sequence (P20036 29-260): T1 sequence (P20036 29-260)
T2 sequence (P04440 30-258 L37V/F38Y/G40L/A65V/A84D/A85E/E86D/I94L/M105V/G113D/G114E/P115A/M116V/R125K/T199I): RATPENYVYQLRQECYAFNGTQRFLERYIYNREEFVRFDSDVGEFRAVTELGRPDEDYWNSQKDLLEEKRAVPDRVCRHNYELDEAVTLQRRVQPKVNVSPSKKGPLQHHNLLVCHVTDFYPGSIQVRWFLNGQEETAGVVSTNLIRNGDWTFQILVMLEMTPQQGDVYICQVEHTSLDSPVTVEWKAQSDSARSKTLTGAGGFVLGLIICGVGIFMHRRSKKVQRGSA
Briefly: biochemical. In kind it is binding. To be noted: read-out: Binding capacity/IC50 (nM) DPA1*01:03 DPB1*03:01.

Assay [3] has as its target T3, HLA-DP DPA1*01:03/DPB1*04:01 (Homo sapiens, UniProt P04440+P20036).
T3 sequence (P20036 29-260): T1 sequence (P20036 29-260)
T3 sequence (P04440 30-258): T1 sequence (P04440 30-258 A65V/A84D/A85E/K98E) with V36A, D55A, E56A, E69K
Briefly: biochemical. In kind it is binding.

The target in assay [4] is T4, HLA-DP DPA1*02:01/DPB1*05:01 (Homo sapiens, UniProt P04440+P20036, A65V/A84E/F191V/F64L/G113D/G114E/K142R/L158P/M116V/M62Q/P115A/Q81R/R125K/T114A/T199I/T259P/V234M).
T4 sequence (P20036 29-260 A42M/M62Q/Q81R/T114A/K142R/L158P/F191V/T259P): T1 sequence (P20036 29-260) with A14M, M34Q, Q53R, T86A, K114R, L130P, F163V, T231P
T4 sequence (P04440 30-258 F64L/A65V/A84E/G113D/G114E/P115A/M116V/R125K/T199I/V234M): T2 sequence (P04440 30-258 L37V/F38Y/G40L/A65V/A84D/A85E/E86D/I94L/M105V/G113D/G114E/P115A/M116V/R125K/T199I) with V8L, Y9F, L11G, F35L, D55E, E56A, D57E, L65I, V76M, V205M
Nature of the assay: biochemical. In kind it is binding. To be noted: read-out: Binding capacity/IC50 (nM) DPA1*02:01 DPB1*05:01.

Assay [5] deals with T5, HLA-DP DPA1*02:01/DPB1*14:01 (Homo sapiens, UniProt P04440+P20036, A65V/A84D/A85E/E86D/F191V/F38H/G113D/G114E/G40L/I94L/K142R/L158P/L37V/M105V/M116V/M62Q/P115A/Q81R/R125K/T114A/T199I/T259P).
T5 sequence (P20036 29-260 A42M/M62Q/Q81R/T114A/K142R/L158P/F191V/T259P): T1 sequence (P20036 29-260) with A14M, M34Q, Q53R, T86A, K114R, L130P, F163V, T231P
T5 sequence (P04440 30-258 L37V/F38H/G40L/A65V/A84D/A85E/E86D/I94L/M105V/G113D/G114E/P115A/M116V/R125K/T199I/R223Q): T2 sequence (P04440 30-258 L37V/F38Y/G40L/A65V/A84D/A85E/E86D/I94L/M105V/G113D/G114E/P115A/M116V/R125K/T199I) with Y9H, R194Q
Briefly: biochemical. In kind it is binding. To be noted: read-out: Binding capacity/IC50 (nM) DPA1*02:01 DPB1*14:01.

The target of assay [6] is T6, HLA-DP DPA1*01:03/DPB1*20:01 (Homo sapiens, UniProt P04440+P20036, A65V/A84D/A85E/E86D/F38Y/G113D/G114E/G40L/I94L/L37V/M116V/P115A/R125K/T199I).
T6 sequence (P20036 29-260): T1 sequence (P20036 29-260)
T6 sequence (P04440 30-258 L37V/F38Y/G40L/A65V/A84D/A85E/E86D/I94L/G113D/G114E/P115A/M116V/R125K/T199I/V234M): T2 sequence (P04440 30-258 L37V/F38Y/G40L/A65V/A84D/A85E/E86D/I94L/M105V/G113D/G114E/P115A/M116V/R125K/T199I) with V76M, V205M
Briefly: biochemical. In kind it is binding. The settings on record: read-out: Binding capacity/IC50 (nM) DPA1*01:03 DPB1*20:01.

For assay [7], the target named is HLA-DP DPA1*02:01/DPB1*01:01 (Homo sapiens, UniProt P04440+P20036, F191V/F38Y/F64Y/G113D/G114E/K142R/L158P/L37V/M105V/M116V/M62Q/P115A/Q81R/R125K/R223Q/T114A/T199I/T259P). Briefly: biochemical.
In assay [8] the target is HLA-DP DPA1*03:01/DPB1*04:02 (Homo sapiens, UniProt P04440+P20036, A42M/A65V/A84D/A85E/L207M/L97S). Briefly: biochemical.
Assay [9] relates to splenocytes from HIVBr27 immunized mice. Briefly: murine IFN-γ ELISPOT assay. The settings on record: splenocytes of HIVBr27-immunized BALB/c mice, 5 µM peptide. In kind it is in vivo. The procedure: Six to eight week-old female BALB/c mice were used in this study. Six mice per group were injected intramuscularly, at weeks 0, 2 and 4, with HIVBr27 plasmid or empty pVAX1. Each quadriceps was injected with 50 µL of DNA at a concentration of 1 µg/µL in saline such that each animal received a total of 100 µg of plasmid DNA per immunization. Two weeks after the last DNA immunization, mice were euthanized with CO2.
Two weeks after the last immunization, mice were euthanized and spleens were removed aseptically. After obtaining single cell suspensions, cells were washed in 10 mL of RPMI 1640. Cells were then resuspended in R-10 (RPMI supplemented with 10% of fetal bovine serum (GIBCO), 2 mM L-glutamine (Life Technologies), 1 mM sodium pyruvate (Life Technologies), 1% vol/vol non-essential amino acids solution (Life Technologies), 1% vol/vol vitamin solution (Life Technologies), […] of Gentamicin, […] of Peflacin and 5×10^−5 M 2β-mercaptoetanol (Life Technologies). The viability of cells was evaluated using 0.2% Trypan Blue exclusion dye to discriminate between live and dead cells. Cell concentration was estimated with the aid of a Neubauer chamber and adjusted in cell culture medium. […]

Where a chain is given by its changes, count along the chain named.

This is an account of results in article PMC3445454, “Broad and Cross-Clade CD4^+ T-Cell Responses Elicited by a DNA Vaccine Encoding Highly Conserved and Promiscuous HIV-1 M-Group Consensus Peptides” (PLoS ONE, 2012).

Sequence of HLA-DP DPA1*02:01/DPB1*01:01 (P20036 29-260 A42M/M62Q/Q81R/T114A/K142R/L158P/F191V/T259P, other chains not shown): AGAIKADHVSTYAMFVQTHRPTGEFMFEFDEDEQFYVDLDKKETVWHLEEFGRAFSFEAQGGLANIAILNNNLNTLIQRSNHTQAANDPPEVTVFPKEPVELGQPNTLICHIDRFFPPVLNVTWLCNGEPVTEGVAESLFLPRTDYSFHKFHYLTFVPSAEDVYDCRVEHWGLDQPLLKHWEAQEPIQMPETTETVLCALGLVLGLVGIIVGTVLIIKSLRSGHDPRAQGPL

Consider `CSCC[C@H](NC(=O)[C@@H]1CCCN1C(=O)[C@H](CCCNC(=N)N)NC(=O)[C@H](CC(C)C)NC(=O)[C@@H]1CCCN1C(=O)[C@@H](NC(=O)[C@H](CCC(N)=O)NC(=O)[C@@H]1CCCN1C(=O)[C@H](CCCNC(=N)N)NC(=O)[C@@H](NC(=O)[C@@H]1CCCN1C(=O)[C@H](Cc1ccccc1)NC(=O)CN)C(C)C)C(C)C)C(=O)N[C@H](C(=O)N[C@@H](Cc1ccc(O)cc1)C(=O)N[C@@H](CCCCN)C(=O)NCC(=O)N[C@@H](C)C(=O)N[C@@H](Cc1ccccc1)C(=O)N[C@@H](CC(=O)O)C(=O)N[C@@H](CC(C)C)C(N)=O)[C@@H](C)O` [nef(67-87)], for which the IC50 on HLA-DR DRB3*01:01 is 6290 nM; at HLA-DR DRB5*01:01 it was 191 nM.
As to `CC[C@H](C)[C@H](NC(=O)[C@H](CCSC)NC(=O)[C@@H](NC(=O)[C@H](CCC(N)=O)NC(=O)[C@H](Cc1c[nH]c2ccccc12)NC(=O)[C@H](CCCNC(=N)N)NC(=O)[C@H](CC(N)=O)NC(=O)[C@H](CCC(=O)O)NC(=O)[C@@H](N)CCSC)C(C)C)C(=O)N[C@H](C(=O)N[C@@H](Cc1c[nH]c2ccccc12)C(=O)N[C@@H](CCC(N)=O)C(=O)N[C@H](C(=O)N[C@@H](CC(=O)O)C(=O)N[C@@H](CCCNC(=N)N)C(N)=O)C(C)C)C(C)C` [vif(1-15)], the IC50 in [1] was 1550 nM; in assay [2] it was 5840 nM; in assay [3], 13 nM; in [4], 8170 nM; in assay [5], 7240 nM; in [6] it was 364 nM. Besides, the IC50 in [7] stood at 1030 nM; in [8], 3750 nM.
For the molecule EWEFVSTPPLVKLWY [RT(413-427) B subtype], in assay [9], the “IFN-γ secretion against variant compared to M-group consensus peptide” value was “reduced”.
Consider EWEYVNTPPLVKLWY [RT(413-427) D subtype], for which the “IFN-γ secretion against variant compared to M-group consensus peptide” value in [9] is given as “reduced”.
